Assay results from BindingDB's records for doi:10.1021/jm010212m (Purdue University, 2001).

What follows are compounds tested against T1, Gag-Pol polyprotein [588-1027]/[588-1147] (Human immunodeficiency virus 1, UniProt P04585) (assay: HIV-1 RT Assay). Details: not given.
T1 construct: 588-1027; 588-1147
`COC(=O)c1cc(C(=CCCCC(OC)OC)c2cc(Cl)c(OC)c(C(=O)OC)c2)cc(Cl)c1OC` [Alkenyldiarylmethane (ADAM) 38a] showed an IC50 of over 100 µM. `COC(=O)c1cc(C(=CCCCC(=O)OCC[Si](C)(C)C)c2cc(C)c(OC)c(C(=O)OC)c2)cc(C)c1OC` [methyl 2-methoxy-5-{1-[4-methoxy-3-(methoxycarbonyl)-5-methylphenyl]-6-oxo-6-[2-(trimethylsilyl)ethoxy]hex-1-en-1-yl}-3-methylbenzoate] gave an IC50 of over 100 µM. In the case of `CCNC(=O)NCCC=C(c1cc(Cl)c(OC)c(C(=O)OC)c1)c1cc(Cl)c(OC)c(C(=O)OC)c1` [methyl 3-chloro-5-{1-[3-chloro-4-methoxy-5-(methoxycarbonyl)phenyl]-4-[(ethylcarbamoyl)amino]but-1-en-1-yl}-2-methoxybenzoate], the IC50 is reported as over 100 µM. With `CNC(=S)NCCC=C(c1cc(Cl)c(OC)c(C(=O)OC)c1)c1cc(Cl)c(OC)c(C(=O)OC)c1` [methyl 3-chloro-5-{1-[3-chloro-4-methoxy-5-(methoxycarbonyl)phenyl]-4-[(methylcarbamothioyl)amino]but-1-en-1-yl}-2-methoxybenzoate] the IC50 was over 100 µM. Work on `COC(=O)c1cc(C(=CCCCC(=O)N2CCCCC2)c2cc(Cl)c(OC)c(C(=O)OC)c2)cc(Cl)c1OC` [6,6-Bis(3-chloro-4-methoxy-5-methoxycarbonylphenyl)-1-piperidylhex-5-en-1-one] yielded an IC50 of over 100 µM. Compound `COC(=O)c1cc(C(=CCCNC(C)=O)c2cc(Cl)c(OC)c(C(=O)OC)c2)cc(Cl)c1OC` [Methyl 5-{4-(Acetylamino)-1-[3-chloro-4-methoxy-5-(methoxycarbonyl)phenyl]but-1-enyl}-3-chloro-2-methoxybenzoate] has an IC50 of over 100 µM.

Same assay, conditions: pH 7.9
Work on `COC(=O)c1cc(C(=CCCCc2ccccc2)c2cc(Cl)c(OC)c(C(=O)OC)c2)cc(Cl)c1OC` [1,1-Bis[3-chloro-4-methoxy-5-(methoxycarbonyl)phenyl]-5-phenyl-1-pentene] yielded an IC50 of over 100 µM. In the case of `COC(=O)c1cc(C(=CCCCC(=O)OC(C)C)c2cc(Cl)c(OC)c(C(=O)OC)c2)cc(Cl)c1OC` [Alkenyldiarylmethane (ADAM) 25a], the IC50 is reported as over 100 µM. `COC(=O)c1cc(C(=CCCCc2ccccc2)c2cc(Br)c(OC)c(C(=O)OC)c2)cc(Br)c1OC` [1,1-Bis[3-bromo-4-methoxy-5-(methoxycarbonyl)phenyl]-5-phenyl-1-pentene] showed an IC50 of over 100 µM. Compound `COC(=O)CCCC=C(c1cc(C(=O)OC)c(OC)c(C(F)(F)F)c1)c1cc(C(=O)OC)c(OC)c(C(F)(F)F)c1` [Alkenyldiarylmethane (ADAM) 18a] has an IC50 of over 200 µM.
